In patent publication US10894784B2, “Heteroarylbenzimidazole compounds” (BAYER PHARMA AKTIENGESELLSCHAFT, priority 2015, dated 2021):

Target: TBK1 (Homo sapiens (Human), UniProt Q9UHD2)
Assay: TBK1 low ATP kinase assay (in vitro assay 1)
Type: biochemical
Settings: TBK1 low ATP kinase assay IC50, in vitro assay 1

Chain of TBK1 (Q9UHD2 whole entry): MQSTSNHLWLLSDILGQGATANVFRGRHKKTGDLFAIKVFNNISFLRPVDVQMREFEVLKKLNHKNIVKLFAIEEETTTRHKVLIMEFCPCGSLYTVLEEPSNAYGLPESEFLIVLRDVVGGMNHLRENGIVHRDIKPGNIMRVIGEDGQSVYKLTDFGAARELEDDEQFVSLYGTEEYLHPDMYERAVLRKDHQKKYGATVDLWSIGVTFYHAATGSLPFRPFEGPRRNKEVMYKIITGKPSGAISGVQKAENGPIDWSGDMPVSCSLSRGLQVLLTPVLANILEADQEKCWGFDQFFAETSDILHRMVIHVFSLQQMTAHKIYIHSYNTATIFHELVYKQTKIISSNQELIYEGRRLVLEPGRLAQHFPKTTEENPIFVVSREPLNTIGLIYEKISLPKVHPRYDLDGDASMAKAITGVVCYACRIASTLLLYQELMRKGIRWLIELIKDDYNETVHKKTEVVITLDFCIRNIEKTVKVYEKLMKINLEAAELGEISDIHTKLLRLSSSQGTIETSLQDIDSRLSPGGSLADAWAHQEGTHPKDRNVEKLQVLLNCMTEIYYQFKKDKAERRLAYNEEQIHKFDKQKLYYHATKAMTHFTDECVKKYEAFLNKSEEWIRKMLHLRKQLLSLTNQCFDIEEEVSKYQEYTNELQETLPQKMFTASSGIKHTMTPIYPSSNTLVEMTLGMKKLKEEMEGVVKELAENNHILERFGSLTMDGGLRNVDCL

IC50 [nM] | Compound
1.5 | CC(c1ccnc(Nc2nc3ccc(-c4cc(N(C)C)ncn4)cc3[nH]2)c1)N1CCN(C(=O)CC(F)(F)F)CC1 (single isomer, unassigned) [Example 100.01, 1-(4-{(1R or 1S)-1-[2-({6-[6-(dimethylamino)pyrimidin-4-yl]-1H-benzimidazol-2-yl}amino)pyridin-4-yl]ethyl}piperazin-1-yl)-3,3,3-trifluoropropan-1-one]

Same assay, conditions: in vitro assay 1, read-out: TBK1 low ATP kinase assay IC50

Compound | IC50 [nM]
CC(c1ccnc(Nc2nc3ccc(-c4cnn(CC5CC5(F)F)c4)c(F)c3[nH]2)c1)N1CCN(C(=O)C2CC2)CC1 (single isomer, unassigned) [Example 86.03, cyclopropyl{4-[(1R or 1S)-1-(2-{[6-(1-{[(1RS)-2,2-difluorocyclopropyl]methyl}-1H-pyrazol-4-yl)-7-fluoro-1H-benzimidazol-2-yl]amino}pyridin-4-yl)ethyl]piperazin-1-yl}methanone] | 1.5
COc1c(-c2ccc3nc(Nc4cc(C(C)N5CCN(C(=O)OC(C)(C)C)CC5)ccn4)[nH]c3c2)ncnc1N(C)C (single isomer, unassigned) [Example 107.02.01, tert-butyl 4-{(1R or 1S)-1-[2-({6-[6-(dimethylamino)-5-methoxypyrimidin-4-yl]-1H-benzimidazol-2-yl}amino)pyridin-4-yl]ethyl}piperazine-1-carboxylate] | 21
COc1c(-c2ccc3nc(Nc4cc(C(C)N5CCN(C(=O)C6CC6)CC5)ccn4)[nH]c3c2)ncnc1N(C)C (single isomer, unassigned) [Example 107.02.02, cyclopropyl(4-{(1R or 1S)-1-[2-({6-[6-(dimethylamino)-5-methoxypyrimidin-4-yl]-1H-benzimidazol-2-yl}amino)pyridin-4-yl]ethyl}piperazin-1-yl)methanone] | 5.9
COc1c(-c2ccc3nc(Nc4cc(C(C)N5CCN(C(=O)CC(F)(F)F)CC5)ccn4)[nH]c3c2)ncnc1N(C)C (single isomer, unassigned) [Example 107.02.03, 1-(4-{(1R or 1S)-1-[2-({6-[6-(dimethylamino)-5-methoxypyrimidin-4-yl]-1H-benzimidazol-2-yl}amino)pyridin-4-yl]ethyl}piperazin-1-yl)-3,3,3-trifluoropropan-1-one] | 5.4
COc1c(-c2ccc3nc(Nc4cc(C(C)N5CCN(C(=O)C6(C(F)(F)F)CC6)CC5)ccn4)[nH]c3c2)ncnc1N(C)C (single isomer, unassigned) [Example 107.02.04, (4-{(1R or 1S)-1-[2-({6-[6-(dimethylamino)-5-methoxypyrimidin-4-yl]-1H-benzimidazol-2-yl}amino)pyridin-4-yl]ethyl}piperazin-1-yl)[1-(trifluoromethyl)cyclopropyl]methanone] | 5.2
COc1c(NCC2CC2)ncnc1-c1ccc2nc(Nc3cc(C(C)N4CCN(C(=O)OC(C)(C)C)CC4)ccn3)[nH]c2c1 (single isomer, unassigned) [Example 109.02.01, tert-butyl 4-[(1R or 1S)-1-{2-[(6-{6-[(cyclopropylmethyl)amino]-5-methoxypyrimidin-4-yl}-1H-benzimidazol-2-yl)amino]pyridin-4-yl}ethyl]piperazine-1-carboxylate] | 8
COc1c(NCC2CC2)ncnc1-c1ccc2nc(Nc3cc(C(C)N4CCN(C(=O)C5CC5)CC4)ccn3)[nH]c2c1 (single isomer, unassigned) [Example 109.02.02, cyclopropyl{4-[(1R or 1S)-1-{2-[(6-{6-[(cyclopropylmethyl)amino]-5-methoxypyrimidin-4-yl}-1H-benzimidazol-2-yl)amino]pyridin-4-yl}ethyl]piperazin-1-yl}methanone] | 2
COc1c(NCC2CC2)ncnc1-c1ccc2nc(Nc3cc(C(C)N4CCN(C(=O)CC(F)(F)F)CC4)ccn3)[nH]c2c1 (single isomer, unassigned) [Example 109.02.03, 1-{4-[(1R or 1S)-1-{2-[(6-{6-[(cyclopropylmethyl)amino]-5-methoxypyrimidin-4-yl}-1H-benzimidazol-2-yl)amino]pyridin-4-yl}ethyl]piperazin-1-yl}-3,3,3-trifluoropropan-1-one] | 2.4

Other lines, results leading:

IC50 [nM] | Compound
2.3 | CC(c1ccnc(Nc2nc3ccc(-c4cnn(CC(F)F)c4)cc3[nH]2)c1)N1CCN(C(=O)CC(F)(F)F)CC1 (single isomer, unassigned) [Example 87.01, 1-(4-{(1R or 1S)-1-[2-({6-[1-(2,2-difluoroethyl)-1H-pyrazol-4-yl]-1H-benzimidazol-2-yl}amino)pyridin-4-yl]ethyl}piperazin-1-yl)-3,3,3-trifluoropropan-1-one]
2 | CC(c1ccnc(Nc2nc3ccc(-c4cnn(CC(F)F)c4)cc3[nH]2)c1)N1CCN(C(=O)C2CC2)CC1 (single isomer, unassigned) [Example 87.02, cyclopropyl(4-{(1R or 1S)-1-[2-({6-[1-(2,2-difluoroethyl)-1H-pyrazol-4-yl]-1H-benzimidazol-2-yl}amino)pyridin-4-yl]ethyl}piperazin-1-yl)methanone]
11000 | CC(c1ccnc(Nc2nc3cc(-c4cc(C(F)(F)F)nn4C)ccc3[nH]2)c1)N1CCN(C(=O)OC(C)(C)C)CC1 (single isomer, unassigned) [Example 88.01, tert-butyl 4-{(1R or 1S)-1-[2-({6-[1-methyl-3-(trifluoromethyl)-1H-pyrazol-5-yl]-1H-benzimidazol-2-yl}amino)pyridin-4-yl]ethyl}piperazine-1-carboxylate]
860 | CC(c1ccnc(Nc2nc3ccc(-c4cc(C(F)(F)F)nn4C)cc3[nH]2)c1)N1CCN(C(=O)CC(F)(F)F)CC1 (single isomer, unassigned) [Example 88.02, 3,3,3-trifluoro-1-(4-{(1R or 1S)-1-[2-({6-[1-methyl-3-(trifluoromethyl)-1H-pyrazol-5-yl]-1H-benzimidazol-2-yl}amino)pyridin-4-yl]ethyl}piperazin-1-yl)propan-1-one]
990 | CC(c1ccnc(Nc2nc3ccc(-c4cc(C(F)(F)F)nn4C)cc3[nH]2)c1)N1CCN(C(=O)C2CC2)CC1 (single isomer, unassigned) [Example 88.03, cyclopropyl(4-{(1R or 1S)-1-[2-({6-[1-methyl-3-(trifluoromethyl)-1H-pyrazol-5-yl]-1H-benzimidazol-2-yl}amino)pyridin-4-yl]ethyl}piperazin-1-yl)methanone]
610 | Cc1cc(-c2ccc3nc(Nc4cc(C(C)N5CCN(C(=O)OC(C)(C)C)CC5)ccn4)[nH]c3c2)n(C)n1 (single isomer, unassigned) [Example 89.01, tert-butyl 4-[(1R or 1S)-1-(2-{[6-(1,3-dimethyl-1H-pyrazol-5-yl)-1H-benzimidazol-2-yl]amino}pyridin-4-yl)ethyl]piperazine-1-carboxylate]
450 | Cc1cc(-c2ccc3nc(Nc4cc(C(C)N5CCN(C(=O)CC(F)(F)F)CC5)ccn4)[nH]c3c2)n(C)n1 (single isomer, unassigned) [Example 89.02, 1-{4-[(1R or 1S)-1-(2-{[6-(1,3-dimethyl-1H-pyrazol-5-yl)-1H-benzimidazol-2-yl]amino}pyridin-4-yl)ethyl]piperazin-1-yl}-3,3,3-trifluoropropan-1-one]
320 | Cc1cc(-c2ccc3nc(Nc4cc(C(C)N5CCN(C(=O)C6CC6)CC5)ccn4)[nH]c3c2)n(C)n1 (single isomer, unassigned) [Example 89.03, cyclopropyl{4-[(1R or 1S)-1-(2-{[6-(1,3-dimethyl-1H-pyrazol-5-yl)-1H-benzimidazol-2-yl]amino}pyridin-4-yl)ethyl]piperazin-1-yl}methanone]
100 | Cc1cc(-c2ccc3nc(Nc4cc(C(C)N5CCN(C(=O)OC(C)(C)C)CC5)ccn4)[nH]c3c2Cl)ncn1 (single isomer, unassigned) [Example 98.01, tert-butyl 4-[(1R or 1S)-1-(2-{[7-chloro-6-(6-methylpyrimidin-4-yl)-1H-benzimidazol-2-yl]amino}pyridin-4-yl)ethyl]piperazine-1-carboxylate]
44 | Cc1cc(-c2ccc3nc(Nc4cc(C(C)N5CCN(C(=O)CC(F)(F)F)CC5)ccn4)[nH]c3c2Cl)ncn1 (single isomer, unassigned) [Example 98.02, 1-{4-[(1R or 1S)-1-(2-{[7-chloro-6-(6-methylpyrimidin-4-yl)-1H-benzimidazol-2-yl]amino}pyridin-4-yl)ethyl]piperazin-1-yl}-3,3,3-trifluoropropan-1-one]
33 | COCc1cc(-c2ccc3nc(Nc4cc(C(C)N5CCN(C(=O)CC(F)(F)F)CC5)ccn4)[nH]c3c2Cl)ncn1 (single isomer, unassigned) [Example 99.01, 1-(4-{(1R or 1S)-1-[2-({7-chloro-6-[6-(methoxymethyl)pyrimidin-4-yl]-1H-benzimidazol-2-yl}amino)pyridin-4-yl]ethyl}piperazin-1-yl)-3,3,3-trifluoropropan-1-one]
2 | CC(c1ccnc(Nc2nc3ccc(-c4cc(N(C)C)ncn4)cc3[nH]2)c1)N1CCN(C(=O)C2CC2)CC1 (single isomer, unassigned) [Example 100.03, cyclopropyl(4-{(1R or 1S)-1-[2-({6-[6-(dimethylamino)pyrimidin-4-yl]-1H-benzimidazol-2-yl}amino)pyridin-4-yl]ethyl}piperazin-1-yl)methanone]
2.6 | COc1c(-c2ccc3nc(Nc4cc(C(C)N5CCN(C(=O)OC(C)(C)C)CC5)ccn4)[nH]c3c2)ncnc1N1CCC1 (single isomer, unassigned) [Example 111.01, tert-butyl 4-{(1R or 1S)-1-[2-({6-[6-(azetidin-1-yl)-5-methoxypyrimidin-4-yl]-1H-benzimidazol-2-yl}amino)pyridin-4-yl]ethyl}piperazine-1-carboxylate]
1 | COc1c(-c2ccc3nc(Nc4cc(C(C)N5CCN(C(=O)C6CC6)CC5)ccn4)[nH]c3c2)ncnc1N1CCC1 (single isomer, unassigned) [Example 111.02, (4-{(1R or 1S)-1-[2-({6-[6-(azetidin-1-yl)-5-methoxypyrimidin-4-yl]-1H-benzimidazol-2-yl}amino)pyridin-4-yl]ethyl}piperazin-1-yl)(cyclopropyl)methanone]
